Experimental data from the supplement of paper PMC10307832.

Tests used:
Assay in all cases: relative viability (nuclei count vs DMSO), 5 days (fraction); higher = more cells survive
[1] = compound: O=C(O)C(Cc1ccccc1[N+](=O)[O-])=NNc1nc(-c2ccc(Cl)c(Cl)c2)cs1 (mixture of isomers) [4EGI-1] + Nc1ncn([C@H]2C[C@H](O)[C@@H](CO)O2)c(=O)n1 [Decitabine] (partner 2 µM)
Outline: (§1)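 Relative viability was taken as the ratio of nuclei in treated wells to nuclei in vehicle wells. Lung cancer cell lines in 1536-well plates received compounds by pin tool one day after seeding, either one drug alone or a fixed anchor-drug dose plus five library-drug doses (not always all listed) in √10 steps. Nuclei were counted on 4× images after 5 days of treatment, and values are medians of duplicate plates.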

[2] = compound: O=C(O)C(Cc1ccccc1[N+](=O)[O-])=NNc1nc(-c2ccc(Cl)c(Cl)c2)cs1 (mixture of isomers) [4EGI-1] + Cc1nc(Nc2ncc(C(=O)Nc3c(C)cccc3Cl)s2)cc(N2CCN(CCO)CC2)n1 [Dasatinib] (partner 0.075 µM)
Outline: as §1

[3] = compound: O=C(O)C(Cc1ccccc1[N+](=O)[O-])=NNc1nc(-c2ccc(Cl)c(Cl)c2)cs1 (mixture of isomers) [4EGI-1] + O=C(CCCCCCC(=O)Nc1ccccc1)NO [Vorinostat] (partner 1 µM)
Outline: as §1

[4] = compound: CN1CCN(CC1)C2=CC(=C(C=C2)NC3=NC=C4C(=N3)N(C5=CC=CC=C5C(=O)N4C)C)OC [XMD8-85] + O=C(CCCCCCC(=O)Nc1ccccc1)NO [Vorinostat] (partner 1 µM)
Outline: as §1

LXF-289
relative viability ([1]; first compound 0.5 µM): 0.436
relative viability ([1]; first compound 1.581 µM): 0.346
relative viability ([1]; first compound 5 µM): 0.391
relative viability ([1]; first compound 15.81 µM): 0.359
relative viability ([1]; first compound 50 µM): 0.287
relative viability ([2]; first compound 0.5 µM): 0.282
relative viability ([2]; first compound 1.581 µM): 0.215
relative viability ([2]; first compound 5 µM): 0.249
relative viability ([2]; first compound 15.81 µM): 0.188
relative viability ([2]; first compound 50 µM): 0.102
relative viability ([3]; first compound 0.5 µM): 0.79
relative viability ([3]; first compound 1.581 µM): 0.718
relative viability ([3]; first compound 5 µM): 0.787
relative viability ([3]; first compound 15.81 µM): 0.802
relative viability ([3]; first compound 50 µM): 0.672
relative viability ([4]; first compound 0.08 µM): 0.749
relative viability ([4]; first compound 0.253 µM): 0.893
relative viability ([4]; first compound 0.8 µM): 0.781
relative viability ([4]; first compound 2.53 µM): 0.875
relative viability ([4]; first compound 8 µM): 0.795

NCI-H1666
relative viability ([1]; first compound 0.5 µM): 0.749
relative viability ([1]; first compound 1.581 µM): 0.609
relative viability ([1]; first compound 5 µM): 0.758
relative viability ([1]; first compound 15.81 µM): 0.564
relative viability ([1]; first compound 50 µM): 0.495
relative viability ([2]; first compound 0.5 µM): 0.838
relative viability ([2]; first compound 1.581 µM): 0.717
relative viability ([2]; first compound 5 µM): 0.834
relative viability ([2]; first compound 15.81 µM): 0.566
relative viability ([2]; first compound 50 µM): 0.374
relative viability ([3]; first compound 0.5 µM): 0.997
relative viability ([3]; first compound 1.581 µM): 1.12
relative viability ([3]; first compound 5 µM): 0.949
relative viability ([3]; first compound 15.81 µM): 0.992
relative viability ([3]; first compound 50 µM): 0.604
relative viability ([4]; first compound 0.08 µM): 1.13
relative viability ([4]; first compound 0.253 µM): 1.03
relative viability ([4]; first compound 0.8 µM): 0.996
relative viability ([4]; first compound 2.53 µM): 0.947
relative viability ([4]; first compound 8 µM): 0.92

HCC-78
relative viability ([1]; first compound 0.5 µM): 0.768
relative viability ([1]; first compound 5 µM): 0.729
relative viability ([1]; first compound 15.81 µM): 0.621
relative viability ([1]; first compound 50 µM): 0.725
relative viability ([2]; first compound 0.5 µM): 0.41
relative viability ([2]; first compound 5 µM): 0.383
relative viability ([2]; first compound 15.81 µM): 0.34
relative viability ([2]; first compound 50 µM): 0.357
relative viability ([3]; first compound 0.5 µM): 0.579
relative viability ([3]; first compound 5 µM): 0.435
relative viability ([3]; first compound 15.81 µM): 0.443
relative viability ([3]; first compound 50 µM): 0.451
relative viability ([4]; first compound 0.08 µM): 0.395
relative viability ([4]; first compound 0.253 µM): 0.43
relative viability ([4]; first compound 0.8 µM): 0.391
relative viability ([4]; first compound 2.53 µM): 0.427
relative viability ([4]; first compound 8 µM): 0.434

NCI-H2126
relative viability ([1]; first compound 0.5 µM): 0.611
relative viability ([1]; first compound 1.581 µM): 0.65
relative viability ([1]; first compound 5 µM): 0.617
relative viability ([1]; first compound 15.81 µM): 0.472
relative viability ([1]; first compound 50 µM): 0.488
relative viability ([2]; first compound 0.5 µM): 0.673
relative viability ([2]; first compound 5 µM): 0.629
relative viability ([2]; first compound 15.81 µM): 0.383
relative viability ([2]; first compound 50 µM): 0.309
relative viability ([3]; first compound 0.5 µM): 0.756
relative viability ([3]; first compound 1.581 µM): 0.773
relative viability ([3]; first compound 5 µM): 0.819
relative viability ([3]; first compound 15.81 µM): 0.539
relative viability ([3]; first compound 50 µM): 0.646
relative viability ([4]; first compound 0.08 µM): 0.772
relative viability ([4]; first compound 0.8 µM): 0.795
relative viability ([4]; first compound 8 µM): 0.553

NCI-H1993
relative viability ([1]; first compound 0.5 µM): 0.74
relative viability ([1]; first compound 1.581 µM): 0.548
relative viability ([1]; first compound 5 µM): 0.588
relative viability ([1]; first compound 15.81 µM): 0.619
relative viability ([1]; first compound 50 µM): 0.462
relative viability ([2]; first compound 0.5 µM): 0.595
relative viability ([2]; first compound 1.581 µM): 0.616
relative viability ([2]; first compound 5 µM): 0.543
relative viability ([2]; first compound 15.81 µM): 0.467
relative viability ([2]; first compound 50 µM): 0.441
relative viability ([3]; first compound 0.5 µM): 1.04
relative viability ([3]; first compound 1.581 µM): 0.678
relative viability ([3]; first compound 5 µM): 0.778
relative viability ([3]; first compound 15.81 µM): 0.524
relative viability ([3]; first compound 50 µM): 0.349
relative viability ([4]; first compound 0.08 µM): 0.559
relative viability ([4]; first compound 0.253 µM): 0.783
relative viability ([4]; first compound 0.8 µM): 0.839
relative viability ([4]; first compound 2.53 µM): 0.825
relative viability ([4]; first compound 8 µM): 0.766

LOU-NH91
relative viability ([1]; first compound 0.5 µM): 0.841
relative viability ([1]; first compound 5 µM): 0.815
relative viability ([1]; first compound 15.81 µM): 0.658
relative viability ([1]; first compound 50 µM): 0.686
relative viability ([2]; first compound 0.5 µM): 0.569
relative viability ([2]; first compound 5 µM): 0.505
relative viability ([2]; first compound 15.81 µM): 0.378
relative viability ([2]; first compound 50 µM): 0.458
relative viability ([3]; first compound 0.5 µM): 0.993
relative viability ([3]; first compound 5 µM): 0.964
relative viability ([3]; first compound 15.81 µM): 0.782
relative viability ([3]; first compound 50 µM): 0.529
relative viability ([4]; first compound 0.08 µM): 0.896
relative viability ([4]; first compound 0.253 µM): 0.904
relative viability ([4]; first compound 0.8 µM): 0.91
relative viability ([4]; first compound 2.53 µM): 1.04
relative viability ([4]; first compound 8 µM): 0.641

NCI-H1437
relative viability ([1]; first compound 0.5 µM): 0.58
relative viability ([1]; first compound 1.581 µM): 0.593
relative viability ([1]; first compound 5 µM): 0.544
relative viability ([1]; first compound 15.81 µM): 0.435
relative viability ([1]; first compound 50 µM): 0.221
relative viability ([2]; first compound 0.5 µM): 0.427
relative viability ([2]; first compound 1.581 µM): 0.409
relative viability ([2]; first compound 5 µM): 0.421
relative viability ([2]; first compound 15.81 µM): 0.232
relative viability ([2]; first compound 50 µM): 0.103
relative viability ([3]; first compound 0.5 µM): 0.975
relative viability ([3]; first compound 1.581 µM): 0.805
relative viability ([3]; first compound 5 µM): 0.776
relative viability ([3]; first compound 15.81 µM): 0.418
relative viability ([3]; first compound 50 µM): 0.206
relative viability ([4]; first compound 0.08 µM): 0.93
relative viability ([4]; first compound 0.253 µM): 0.879
relative viability ([4]; first compound 0.8 µM): 0.94
relative viability ([4]; first compound 2.53 µM): 0.751
relative viability ([4]; first compound 8 µM): 0.482

H3255
relative viability ([1]; first compound 0.5 µM): 0.684
relative viability ([1]; first compound 5 µM): 0.638
relative viability ([1]; first compound 50 µM): 0.594
relative viability ([2]; first compound 0.5 µM): 0.361
relative viability ([2]; first compound 1.581 µM): 0.321
relative viability ([2]; first compound 5 µM): 0.412
relative viability ([2]; first compound 15.81 µM): 0.324
relative viability ([2]; first compound 50 µM): 0.322
relative viability ([3]; first compound 0.5 µM): 0.792
relative viability ([3]; first compound 5 µM): 0.77
relative viability ([3]; first compound 50 µM): 0.735
relative viability ([4]; first compound 0.08 µM): 0.875
relative viability ([4]; first compound 0.253 µM): 0.761
relative viability ([4]; first compound 0.8 µM): 0.867
relative viability ([4]; first compound 2.53 µM): 0.902
relative viability ([4]; first compound 8 µM): 0.536

NCI-H322M
relative viability ([1]; first compound 0.5 µM): 0.692
relative viability ([1]; first compound 5 µM): 0.764
relative viability ([1]; first compound 15.81 µM): 0.636
relative viability ([1]; first compound 50 µM): 0.727
relative viability ([2]; first compound 0.5 µM): 0.23
relative viability ([2]; first compound 5 µM): 0.243
relative viability ([2]; first compound 15.81 µM): 0.237
relative viability ([2]; first compound 50 µM): 0.256
relative viability ([3]; first compound 0.5 µM): 0.998
relative viability ([3]; first compound 5 µM): 1.05
relative viability ([3]; first compound 15.81 µM): 0.8
relative viability ([3]; first compound 50 µM): 0.482
relative viability ([4]; first compound 0.08 µM): 0.832
relative viability ([4]; first compound 0.253 µM): 0.815
relative viability ([4]; first compound 0.8 µM): 0.885
relative viability ([4]; first compound 2.53 µM): 0.779
relative viability ([4]; first compound 8 µM): 0.606
